Test [1] deals with hippocampal slices. To be noted: Pearce, Neuron 10:189, 1993; cited from earlier work.
In test [2] the test system is rat hippocampal slices. Put plainly: stimulation evoked after discharge activity in rat hippocampal slices (Example 68). It is filed as cell-based. The procedure: Sprague-Dawley rats (males and females; 25-35 days old) were decapitated, the top of the skull was rapidly removed, and the brain chilled with ice-cold oxygenated slicing medium. […] A hemisphere of brain containing hippocampus was blocked and glued (cyanoacrylic adhesive) to the stage of a Vibroslicer (Frederick Haer, Brunsick, Me.). […] In the recording chamber, the slices were perfused with oxygenated recording medium at 34-35° C. All animal procedures were conducted in accordance with NIH and University of Washington animal care guidelines. In most slice experiments, simultaneous extracellular field electrode recordings were obtained from CA1 and CA3 areas. A bipolar tungsten stimulating electrode was placed on the Schaffer collaterals to evoke synaptically-driven field responses in CA1. Stimuli consisted of 100-300 μsec duration pulses at an intensity of four times the population-spike threshold. After discharges were evoked by a 2 second train of such stimuli delivered at 60 Hz.

Test [3] has as its system rats. Put plainly: contextual fear conditioning in rats (freezing). It counts as in vivo, rat. The note with it: I.V. in DMSO, furosemide 100 mg/kg, bumetanide 50 mg/kg; compared with vehicle alone; FIG. 5. The procedure:
Contextual fear conditioning involves pairing an aversive event, in this case moderate foot shock, with a distinctive environment. The strength of the fear memory is assessed using freezing, a species-typical defensive reaction in rats, marked by complete immobility, except for breathing. […] However, if they are allowed to explore the distinctive environment sometime before the immediate shock, they show intense anxiety and fear when placed back into the same environment. We can take advantage of this fact and, by procedurally dividing contextual fear conditioning into two phases, we can separately study effects of treatments on memory for the context (specifically a hippocampus based process) from learning the association between context and shock or experiencing the aversiveness of the shock (which depend upon emotional response circuitry including amygdala). […] The experiment employed 24 rats. […] Each rat was again placed into the same environment for 8 min during which time freezing was measured, as an index of Pavlovian conditioned fear. […] Measurement of freezing was accomplished through an overhead video camera connected to the microcomputer and was automatically scored using a specialty piece of software, FreezeFrame (OER Inc., Reston, Va.). Total freezing time was analyzed in a one-way analysis of variance (ANOVA) test, with drug dose as the […] factor.

For test [4], the system named is hippocampal slices, CA1. Put plainly: comparison of low-[Cl-]o and furosemide on blockade of high-[K+]o-induced epileptiform activity, CA1 field (Example 78). It is filed as cell-based, rat. From the text:
In all of the following experiments, [Cl^−]o was reduced by equimolar replacement of NaCl with Na^+-gluconate. Gluconate was used rather than other anion replacements for several reasons. […]; U.S. Pat. No. 5,902,732). Third, formate, acetate, and proprionate generate weak acids when employed as Cl^− substitutes and lead to a prompt fall in intracellular pH; gluconate remains extracellular and has not been reported to induce intracellular pH shifts. Fourth, for purposes of comparison we wished to use the same anion replacement that had been used in previous studies examining the effects of low-[Cl^−]o on activity-evoked changes of the ECS.
Sprague-Dawley adult rats were prepared as previously described. Briefly, transverse hippocampal slices, 400 μm thick, were cut using a vibrating cutter. Slices typically contained the entire hippocampus and subiculum. […] Normal ACSF contained (in mmol/l): 124 NaCl, 3 KCl, 1.25 NaH2PO4, 1.2 MgSO4, 26 NaHCO3, 2 CaCl2, and 10 dextrose.
Sharp-electrodes filled with 4 M potassium acetate were used for intracellular recordings from CA1 pyramidal cells. […] For stimulation of the Schaffer collateral pathway, a small monopolar electrode was placed on the surface of the slice midway between areas CA1 and CA3. […] AxoScope software (Axon Instruments Inc.) on a PC-computer was used for off-line analyses of data. […]

Test [5] has as its system human patients. To be noted: Haglund and Hochman, J. Neurophysiol. 2005; cited from earlier work.
In test [6] the test system is synchronized discharges. To be noted: Hochman et al. Science 270:99-102, 1995; cited from earlier work.
The mark [7] stands for this setting: 2.5 mM furosemide, after 20 minutes of perfusion.

`NS(=O)(=O)c1cc(C(=O)O)c(NCc2ccco2)cc1Cl` [furosemide]: the “latency of block of a component of the inhibitory currents” value in test [1] was less than 15 min. In addition, in test [2] (setting [7]), the “CA1 field response to single test pulse” value was “hyper-excitable field response” and the stimulation-evoked optical changes entry is recorded as “blocked”. Also, the “electrical after discharge activity” value in test [2] (2.5 mM furosemide, after 20 minutes of perfusion, Schaffer collateral stimulation 60 Hz 2 s, CA1) is on record as “blocked”. Moreover, in test [2] (after 45 minutes of perfusion with normal bathing medium), the recovery after washout result is on record as “restoration of initial response patterns”. Further, the “minimum concentration required to block both the after discharges and optical changes” value in test [2] (dose-dependency experiments) is reported as 1.25 mM. Moreover, the freezing entry in test [3] is “significantly less freezing”. Besides, the “response to electrical stimulation of the Schaffer collaterals” value in test [4] (after the spontaneous bursting had been blocked) was “elicited hyperexcited responses”. For the same compound, the “temporal sequence of effects on high-[K+]o-induced bursting, CA1 field” value in test [4] (furosemide 2.5 and 5 mM, [K+]o 12 mM) was “an initial brief period of increased amplitude of field activity, and then blockade (reversible) of spontaneous field activity”. The “epileptic activity and normal brain activity in humans” value in test [5] is “able to block epileptic activity in humans while not affecting normal brain activity”. The “synchronized discharges and hyperexcited synaptic responses” value in test [6] is “reversibly blocked synchronized discharges without reducing hyperexcited synaptic responses”.

The values above are taken from US8008283B2, “Methods and compositions for the treatment of neuropsychiatric disorders” (Neurotherapeutics Pharma, Inc., priority 2005, dated 2011).
